# Source: US20170368082A1, “FORMULATIONS OF BRINCIDOFOVIR” (priority 2016, published 2017)
# Several values for one entry are separate records, joined by “and”; a condition that tells them apart may be missing. Equal values may be shown once.
# Test: Tissue distribution by quantitative whole-body autoradiography (QWBA)
# Assay type: in vivo, male Sprague Dawley and Long-Evans rats
# Details: for Concentration of radioactivity: SD rat
# Procedure: The study utilized 4 groups of male SD rats (albino), and 3 groups of male LE rats (pigmented); a total of 39 rats. All animals were obtained from Hilltop Lab Animals, Inc. (Scottdale, Pa.). […] Rats in Group 5 were administered a single 2-h IV infusion of [^14C]brincidofovir at a target dose of 2 mg/kg. […] Three dosing formulations (one for high dose IV, one for low dose IV, and one for PO dose) were prepared at QPS on the day of dosing. The IV formulation for Groups 1, 2, 3, and 4 contained a vehicle of 10 mM sodium phosphate buffer in 5% dextrose solution at pH 8.0(±0.1).
# Each animal, at their respective termination time points, was euthanized for QWBA analysis immediately after blood collection. One rat per time point per Group was euthanized as listed below.
# The blood samples were maintained on wet ice (approximately 4° C.) and then centrifuged to obtain plasma within 1 h of the blood collection time. Centrifuge settings were recorded in the study notebook. Duplicate aliquots of plasma (0.050 mL) were analyzed for radioactivity using direct counting by LSC, and residual plasma was stored at approximately −70° C. and was saved for possible future analysis under a separate study protocol. Residual red blood cells were discarded as radioactive waste.
# The pinna, distal limbs, hair, and tail were removed from each frozen carcass and each frozen carcass was embedded in an aqueous suspension of approximately 2% (w/v) carboxymethylcellulose and frozen into a block. The blocks were stored at approximately −20° C. prior to sectioning. Each blocked carcass was mounted on the object stage of a cryomicrotome (Leica CM3600 Cryomacrocut, Nussloch, Germany and Vibratome 9800, St. Louis, Mo.) maintained at approximately −20° C. and internal standards (3), which were plasma fortified with [^14C]-glucose at one concentration (approximately 0.05 μCi/mL), were placed into the frozen blocks, prior to sectioning, and were used for section thickness quality control. A number of whole-body sections (approximately 40 μm thick) were taken in the sagittal plane at various levels of interest using a whole-body cryomicrotome set at −20° C. Sagittal sections (20-50 μm thick) of frozen carcasses were exposed to phosphor imaging plates. Regions of images in tissues were converted to concentrations using standards. All of the major tissues, organs, and biological fluids were represented.
# Tissue concentration data was determined for the following tissues and/or contents: adipose (brown and white), adrenal gland, bile (in duct), blood (cardiac), bone, bone marrow, brain (cerebrum, cerebellum, medulla), cecum (and contents), large intestine (and contents), epididymis, esophagus, eye (uvea and lens), Harderian gland, heart, kidney (cortex and medulla), liver, lung, lymph node, pancreas, pituitary gland, prostate gland, salivary gland, seminal vesicles, skeletal muscle, skin (pigmented and non-pigmented), small intestine (and contents), stomach (gastric mucosa and contents), spleen, spinal cord, testis, thymus, thyroid, and urinary bladder (and contents).
# The imaging plate and sections were placed in light-tight exposure cassettes, in a copper-lined lead safe, for a 4-day exposure at room temperature. […] Quantification was performed by image densitometry using MCD image analysis software (v. 7.0, Interfocus Imaging Ltd) and a standard curve constructed from the integrated response [i.e., Molecular Dynamics Counts per square millimeter (MDC/mm^2)] and the nominal concentrations of the ^14C-calibration standards. The concentrations of radioactivity were expressed as the μg equivalents of [^14C]brincidofovir per gram sample (μg equiv/g). A lower limit of quantification (LLOQ) was applied to the data (See section 6.7.4).
# Tissue concentrations that fell below the LLOQ were identified as being below the quantification limit (BQL). Tissue areas that were not visualized on autoradiographic images were identified as no sample (NS) and reported as BQL.
# [1] = Group 6 SD albino rats, oral 15 mg/kg, c2 2 h, c3 24 h, c4 168 h, LLOQ 0.034
structure (smiles),measurement,setting,value
CCCCCCCCCCCCCCCCOCCCOP(=O)(O)CO[C@H](CO)Cn1ccc(N)nc1=O [[^14C]brincidofovir],"Bile Cmax, IV relative to oral",15 mg/kg,14 times
same,"Small intestinal tissue concentration, IV relative to oral",15 mg/kg,approximately 1/10
same,"Small intestine Cmax, oral compared to IV",15 mg/kg,6 fold
same,Tissue t1/2: adrenal gland,15 mg/kg 2-h IV,254 h
same,Tissue t1/2: blood (cardiac),15 mg/kg 2-h IV,14.2 h
same,Tissue t1/2: bone marrow,15 mg/kg 2-h IV,276 h
same,Tissue t1/2: lymph node,15 mg/kg 2-h IV,345 h
same,Tissue t1/2: skin non-pigmented,15 mg/kg 2-h IV,310 h
same,Tissue t1/2: spleen,15 mg/kg 2-h IV,378 h
same,Tissue t1/2: adipose (brown),15 mg/kg PO,234 h
same,Tissue t1/2: esophagus,15 mg/kg PO,37.2 h
same,Tissue t1/2: lung,15 mg/kg PO,93 h
same,Tissue t1/2: pituitary gland,15 mg/kg PO,106 h
same,Tissue t1/2: small intestine,15 mg/kg PO,98.1 h
same,Tissue t1/2: spleen,15 mg/kg PO,115 h
same,Concentration of radioactivity,"Adipose (brown), 2 h, 15 mg/kg IV",2.088 μg equiv./g
same,Concentration of radioactivity,"Adipose (brown), 24 h, 15 mg/kg IV",0.473 μg equiv./g
same,Concentration of radioactivity,"Adipose (brown), 168 h, 15 mg/kg IV",0.391 μg equiv./g
same,Concentration of radioactivity,"Adipose (white), 2 h, 15 mg/kg IV",0.386 μg equiv./g
same,Concentration of radioactivity,"Adipose (white), 24 h, 15 mg/kg IV",0.135 μg equiv./g
same,Concentration of radioactivity,"Adipose (white), 168 h, 15 mg/kg IV",BQL (BQL = Value is below the LLOQ)
same,Concentration of radioactivity,"Adrenal Gland, 2 h, 15 mg/kg IV",4.308 μg equiv./g
same,Concentration of radioactivity,"Adrenal Gland, 24 h, 15 mg/kg IV",1.680 μg equiv./g
same,Concentration of radioactivity,"Adrenal Gland, 168 h, 15 mg/kg IV",0.647 μg equiv./g
same,Concentration of radioactivity,"Bile (in duct), 24 h, 15 mg/kg IV",1.469 μg equiv./g
same,Concentration of radioactivity,"Bile (in duct), 168 h, 15 mg/kg IV",0.058 μg equiv./g
same,Concentration of radioactivity,"Blood (cardiac), 2 h, 15 mg/kg IV",6.865 μg equiv./g
same,Concentration of radioactivity,"Blood (cardiac), 24 h, 15 mg/kg IV",0.308 μg equiv./g
same,Concentration of radioactivity,"Blood (cardiac), 168 h, 15 mg/kg IV",BQL (BQL = Value is below the LLOQ)
same,Concentration of radioactivity,"Bone Marrow, 2 h, 15 mg/kg IV",3.411 μg equiv./g
same,Concentration of radioactivity,"Bone Marrow, 24 h, 15 mg/kg IV",1.219 μg equiv./g
same,Concentration of radioactivity,"Bone Marrow, 168 h, 15 mg/kg IV",0.196 μg equiv./g
same,Concentration of radioactivity,"Bone, 2 h, 15 mg/kg IV",0.449 μg equiv./g
same,Concentration of radioactivity,"Bone, 24 h, 15 mg/kg IV",0.095 μg equiv./g
same,Concentration of radioactivity,"Bone, 168 h, 15 mg/kg IV",BQL (BQL = Value is below the LLOQ)
same,Concentration of radioactivity,"Brain (cerebellum), 2 h, 15 mg/kg IV",0.907 μg equiv./g
same,Concentration of radioactivity,"Brain (cerebellum), 24 h, 15 mg/kg IV",0.161 μg equiv./g
same,Concentration of radioactivity,"Brain (cerebellum), 168 h, 15 mg/kg IV",BQL (BQL = Value is below the LLOQ)
same,Concentration of radioactivity,"Brain (cerebrum), 2 h, 15 mg/kg IV",0.803 μg equiv./g
same,Concentration of radioactivity,"Brain (cerebrum), 24 h, 15 mg/kg IV",0.107 μg equiv./g
same,Concentration of radioactivity,"Brain (cerebrum), 168 h, 15 mg/kg IV",BQL (BQL = Value is below the LLOQ)
same,Concentration of radioactivity,"Brain (medulla), 2 h, 15 mg/kg IV",0.864 μg equiv./g
same,Concentration of radioactivity,"Brain (medulla), 24 h, 15 mg/kg IV",0.132 μg equiv./g
same,Concentration of radioactivity,"Brain (medulla), 168 h, 15 mg/kg IV",BQL (BQL = Value is below the LLOQ)
same,Concentration of radioactivity,"Cecum (contents), 2 h, 15 mg/kg IV",0.085 μg equiv./g
same,Concentration of radioactivity,"Cecum (contents), 24 h, 15 mg/kg IV",58.016 μg equiv./g
same,Concentration of radioactivity,"Cecum, 2 h, 15 mg/kg IV",3.658 μg equiv./g
same,Concentration of radioactivity,"Cecum, 24 h, 15 mg/kg IV",5.981 μg equiv./g
same,Concentration of radioactivity,"Cecum, 168 h, 15 mg/kg IV",0.099 μg equiv./g
same,Concentration of radioactivity,"Epididymis, 2 h, 15 mg/kg IV",2.391 μg equiv./g
same,Concentration of radioactivity,"Epididymis, 24 h, 15 mg/kg IV",0.566 μg equiv./g
same,Concentration of radioactivity,"Epididymis, 168 h, 15 mg/kg IV",0.234 μg equiv./g
same,"Concentration, Seminal Vesicles","G4 15 mg/kg IV, c3 2 h, c6 8 h, c9 24 h, c12 72 h",1.374 μg equiv/g tissue and 1.834 μg equiv/g tissue and 1.717 μg equiv/g tissue and 1.127 μg equiv/g tissue
same,"Concentration, Eye (lens)","G5 2 mg/kg IV, c2 2 h, c5 8 h, c8 24 h, c11 72 h, LLOQ 0.005",BQL
same,Urinary bladder contents,"Group 3, 2 h",47.0 μg equiv/g
same,Concentration at Tmax: kidney cortex,"Group 3 SD, 15 mg/kg 2-h IV",106.5 μg equiv/g
same,Concentration at Tmax: kidney medulla,"Group 3 SD, 15 mg/kg 2-h IV",33.4 μg equiv/g
same,Concentration at Tmax: liver,"Group 3 SD, 15 mg/kg 2-h IV",229.4 μg equiv/g
same,Concentration at Tmax: small intestine,"Group 3 SD, 15 mg/kg 2-h IV",43.7 μg equiv/g
same,Concentration at Tmax: urinary bladder,"Group 3 SD, 15 mg/kg 2-h IV",36.0 μg equiv/g
same,Highest observed concentration in blood,"Group 3 SD, 15 mg/kg IV, 2 h",6.9 μg equiv/g
same,Concentration in spleen at 840 h post-dose,"Group 4, 15 mg/kg IV",0.270 μg equiv/g
same,Urinary bladder contents,"Group 4, 4 h",814.4 μg equiv/g
same,Concentration at Tmax: kidney cortex,"Group 4 LE, 15 mg/kg 2-h IV",97.3 μg equiv/g
same,Concentration at Tmax: kidney medulla,"Group 4 LE, 15 mg/kg 2-h IV",27.0 μg equiv/g
same,Concentration at Tmax: liver,"Group 4 LE, 15 mg/kg 2-h IV",229.7 μg equiv/g
same,Concentration at Tmax: small intestine,"Group 4 LE, 15 mg/kg 2-h IV",71.0 μg equiv/g
same,Concentration at Tmax: urinary bladder,"Group 4 LE, 15 mg/kg 2-h IV",22.8 μg equiv/g
same,Highest observed concentration in blood,"Group 4 LE, 15 mg/kg IV, 2 h",5.3 μg equiv/g
same,Bile,"Group 5, 2 h",32.7 μg equiv/g
same,Urinary bladder contents,"Group 5, 2 h",22.9 μg equiv/g
same,Concentration at Tmax: kidney cortex,"Group 5 LE, 2 mg/kg 2-h IV",11.0 μg equiv/g
same,Concentration at Tmax: kidney medulla,"Group 5 LE, 2 mg/kg 2-h IV",3.4 μg equiv/g
same,Concentration at Tmax: large intestine,"Group 5 LE, 2 mg/kg 2-h IV",1.0 μg equiv/g
same,Concentration at Tmax: liver,"Group 5 LE, 2 mg/kg 2-h IV",34.2 μg equiv/g
same,Concentration at Tmax: small intestine,"Group 5 LE, 2 mg/kg 2-h IV",2.5 μg equiv/g
same,Highest observed concentration in blood,"Group 5 LE, 2 mg/kg IV, 2 h",0.771 μg equiv/g
same,Bile,"Group 6, 2 h",9.7 μg equiv/g
same,Urinary bladder contents,"Group 6, 24 h",39.9 μg equiv/g
same,"Concentration of radioactivity, Brain (cerebrum)",[1],BQL
same,"Concentration of radioactivity, Brain (medulla)",[1],BQL
same,"Concentration of radioactivity, Eye (lens)",[1],BQL
same,"Concentration of radioactivity, Spinal Cord",[1],BQL
same,"Concentration of radioactivity, Epididymis","Group 6 SD albino rats, oral 15 mg/kg, c2 2 h, c3 24 h, c4 168 h, LLOQ 0.034, 15 mg/kg",0.073 μg equiv./g and 0.091 μg equiv./g and 0.075 μg equiv./g
same,Concentration at Tmax: cecum,"Group 6 SD, 15 mg/kg PO",7.5 μg equiv/g
same,Concentration at Tmax: kidney cortex,"Group 6 SD, 15 mg/kg PO",18.4 μg equiv/g
